pKi: −log10 of the molar value.
The compounds below were run against T1, human CRF receptors (Homo sapiens, UniProt P34998) (assay: CRF receptor binding activity (radioligand displacement, Example 25)). Details: not given.
T1 construct: expressed in transfected cells
T1 sequence (P34998 24-415): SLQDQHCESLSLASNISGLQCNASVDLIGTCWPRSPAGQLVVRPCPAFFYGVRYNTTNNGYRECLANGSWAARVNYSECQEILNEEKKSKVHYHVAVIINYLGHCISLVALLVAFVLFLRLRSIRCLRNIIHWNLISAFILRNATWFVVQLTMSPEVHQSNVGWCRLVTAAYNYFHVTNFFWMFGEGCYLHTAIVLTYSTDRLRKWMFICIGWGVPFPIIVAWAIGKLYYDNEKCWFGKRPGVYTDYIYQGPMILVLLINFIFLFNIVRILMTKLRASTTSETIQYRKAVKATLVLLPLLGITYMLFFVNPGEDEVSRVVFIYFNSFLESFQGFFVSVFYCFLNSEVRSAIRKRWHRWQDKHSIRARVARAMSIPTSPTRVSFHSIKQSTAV
Description: The effectiveness of a compound as a CRF receptor antagonist may be determined by various assay methods. […] CRF receptor affinity may be determined by binding studies that measure the ability of a compound to inhibit the binding of a radiolabeled CRF (e.g., [^125I]tyrosine-CFR) to its receptor (e.g., receptors prepared from rat cerebral cortex membranes). The radioligand binding assay described by DeSouza et al. (supra, 1987) provides an assay for determining a compound's affinity for the CRF receptor.
[formula] where L=radioligand and KD=affinity of radioligand for receptor (Cheng and Prusoff, Biochem. Pharmacol. 22:3099, 1973).
By utilizing radiolabeled CRF ligands, the assay may be used to evaluate the binding activity of the compounds of the present invention with any CRF receptor subtype.
Briefly, the binding assay involves the displacement of a radiolabeled CRF ligand from the CRF receptor. More specifically, the binding assay is performed in 96-well assay plates using 1-10 μg cell membranes from cells stably transfected with human CRF receptors. […] The mixture is incubated for 2 hours at 22° C. followed by separation of the bound and free radioligand by rapid filtration over glass fiber filters. Following three washes, the filters are dried and radioactivity (Auger electrons from ^125I) is counted using a scintillation counter. All radioligand binding data may be analyzed using the non-linear least-squares curve-fitting programs Prism (GraphPad Software Inc) or XLfit (ID Business Solutions Ltd).

pKi, > 7.00:
COc1ccc(-c2c(C)nn3c(NCc4nc(C)no4)cc(C)nc23)c(C)c1 [Example 11-6, [3-(4-Methoxy-2-methyl-phenyl)-2,5-dimethyl-pyrazolo[1,5-a]pyrimidin-7-yl]-(3-methyl-[1,2,4]oxadiazol-5-ylmethyl)-amine]
COc1ccc(-c2c(C)nn3c(N[C@H](C)Cc4nc(C)no4)cc(C)nc23)c(C)c1 [Example 11-10, [3-(4-Methoxy-2-methyl-phenyl)-2,5-dimethyl-pyrazolo[1,5-a]pyrimidin-7-yl]-[(R)-1-methyl-2-(3-methyl-[1,2,4]oxadiazol-5-yl)-ethyl]-amine]
CCC(Nc1cc(C)nc2c(-c3ccc(OC)cc3OC)c(C)nn12)c1nc(C)no1 (stereo not drawn) [Example 11-20, [3-(2,4-Dimethoxy-phenyl)-2,5-dimethyl-pyrazolo[1,5-a]pyrimidin-7-yl]-[1-(3-methyl-[1,2,4]oxadiazol-5-yl)-propyl]-amine]
COc1ccc(-c2c(C)nn3c(NC(C)Cc4nc(C)no4)cc(C)nc23)c(C)c1 (stereo not drawn) [Example 12-1, [3-(4-Methoxy-2-methyl-phenyl)-2,5-dimethyl-pyrazolo[1,5-a]pyrimidin-7-yl]-[1-methyl-2-(3-methyl-[1,2,4]oxadiazol-5-yl)-ethyl]-amine]

Same assay, conditions: displacement of [125I] tyrosine-sauvagine from membranes of cells stably transfected with human CRF receptors; less than 0.10 μM (i.e., 100 nM); read-out: Ki (CRF receptor binding affinity)

pKi, > 7.00:
CCC(Nc1cc(C)nc2c(-c3ccc(OC)cc3C)c(C)nn12)c1nc(C2CC2)no1 (stereo not drawn) [Example 11-1, [1-(3-Cyclopropyl-[1,2,4]oxadiazol-5-yl)-propyl]-[3-(4-methoxy-2-methyl-phenyl)-2,5-dimethyl-pyrazolo[1,5-a]pyrimidin-7-yl]-amine]
COc1ccc(-c2c(C)nn3c(NC(Cc4ccccc4)c4nc(C)no4)cc(C)nc23)c(C)c1 (stereo not drawn) [Example 11-3, [3-(4-Methoxy-2-methyl-phenyl)-2,5-dimethyl-pyrazolo[1,5-a]pyrimidin-7-yl]-[1-(3-methyl-[1,2,4]oxadiazol-5-yl)-2-phenyl-ethyl]-amine]
CCC(Nc1cc(C)nc2c(-c3ccc(OC)cc3C)c(C)nn12)c1nc(C(C)C)no1 (stereo not drawn) [Example 11-4, [1-(3-Isopropyl-[1,2,4]oxadiazol-5-yl)-propyl]-[3-(4-methoxy-2-methyl-phenyl)-2,5-dimethyl-pyrazolo[1,5-a]pyrimidin-7-yl]-amine]
CCCC(Nc1cc(C)nc2c(-c3ccc(OC)cc3C)c(C)nn12)c1nc(C)no1 (stereo not drawn) [Example 11-5, [3-(4-Methoxy-2-methyl-phenyl)-2,5-dimethyl-pyrazolo[1,5-a]pyrimidin-7-yl]-[1-(3-methyl-[1,2,4]oxadiazol-5-yl)-butyl]-amine]
COc1ccc(-c2c(C)nn3c(N[C@H](C)Cc4nc(C5CC5)no4)cc(C)nc23)c(C)c1 [Example 11-9, [2-(3-Cyclopropyl-[1,2,4]oxadiazol-5-yl)-(R)-1-methyl-ethyl]-[3-(4-methoxy-2-methyl-phenyl)-2,5-dimethyl-pyrazolo[1,5-a]pyrimidin-7-yl]-amine]
CCC(Nc1cc(C)nc2c(-c3ccc(OC)cc3C)c(C)nn12)c1nc(C(F)(F)F)no1 (stereo not drawn) [Example 11-11, [3-(4-Methoxy-2-methyl-phenyl)-2,5-dimethyl-pyrazolo[1,5-a]pyrimidin-7-yl]-[1-(3-trifluoromethyl-[1,2,4]oxadiazol-5-yl)-propyl]-amine]
CCc1noc(C[C@@H](C)Nc2cc(C)nc3c(-c4ccc(OC)cc4C)c(C)nn23)n1 [Example 11-17, [2-(3-Ethyl-[1,2,4]oxadiazol-5-yl)-(R)-1-methyl-ethyl]-[3-(4-methoxy-2-methyl-phenyl)-2,5-dimethyl-pyrazolo[1,5-a]pyrimidin-7-yl]-amine]
Cc1cc(N[C@H](CC(C)C)c2nc(C)no2)n2nc(C)c(-c3cnc(N(C)C)cc3C)c2n1 [Example 11-18, [3-(6-Dimethylamino-4-methyl-pyridin-3-yl)-2,5-dimethyl-pyrazolo[1,5-a]pyrimidin-7-yl]-[3-methyl-(R)-1-(3-methyl-[1,2,4]oxadiazol-5-yl)-butyl]-amine]
COc1ccc(-c2c(C)nn3c(NC(CC(C)C)c4nc(C)no4)cc(C)nc23)c(OC)c1 (stereo not drawn) [Example 11-23, [3-(2,4-Dimethoxy-phenyl)-2,5-dimethyl-pyrazolo[1,5-a]pyrimidin-7-yl]-[3-methyl-1-(3-methyl-[1,2,4]oxadiazol-5-yl)-butyl]-amine]
COc1ccc(-c2c(C)nn3c(N(Cc4ccccc4)Cc4nc(C)no4)cc(C)nc23)c(C)c1 [Example 12-2, Benzyl-[3-(4-methoxy-2-methyl-phenyl)-2,5-dimethyl-pyrazolo[1,5-a]pyrimidin-7-yl]-(3-methyl-[1,2,4]oxadiazol-5-ylmethyl)-amine]
COc1ccc(-c2c(C)nn3c(NC(Cc4nc(C)no4)C(F)(F)F)cc(C)nc23)c(C)c1 (stereo not drawn) [Example 12-3, [3-(4-Methoxy-2-methyl-phenyl)-2,5-dimethyl-pyrazolo[1,5-a]pyrimidin-7-yl]-[2,2,2-trifluoro-1-(3-methyl-[1,2,4]oxadiazol-5-ylmethyl)-ethyl]-amine]
COc1ccc(-c2c(C)nn3c(NC(C)Cc4nc(C5CC5)no4)cc(C)nc23)c(C)c1 (stereo not drawn) [Example 12-4, [2-(3-Cyclopropyl-[1,2,4]oxadiazol-5-yl)-1-methyl-ethyl]-[3-(4-methoxy-2-methyl-phenyl)-2,5-dimethyl-pyrazolo[1,5-a]pyrimidin-7-yl]-amine]
COc1ccc(-c2c(C)nn3c(NC(C)Cc4nc(C(C)C)no4)cc(C)nc23)c(C)c1 (stereo not drawn) [Example 12-5, [2-(3-Isopropyl-[1,2,4]oxadiazol-5-yl)-1-methyl-ethyl]-[3-(4-methoxy-2-methyl-phenyl)-2,5-dimethyl-pyrazolo[1,5-a]pyrimidin-7-yl]-amine]
CCC(Cc1nc(C)no1)Nc1cc(C)nc2c(-c3ccc(OC)cc3C)c(C)nn12 (stereo not drawn) [Example 12-9, [3-(4-Methoxy-2-methyl-phenyl)-2,5-dimethyl-pyrazolo[1,5-a]pyrimidin-7-yl]-[1-(3-methyl-[1,2,4]oxadiazol-5-ylmethyl)-propyl]-amine]
CCC(Cc1nc(C2CC2)no1)Nc1cc(C)nc2c(-c3ccc(OC)cc3OC)c(C)nn12 (stereo not drawn) [Example 12-10, [1-(3-Cyclopropyl-[1,2,4]oxadiazol-5-ylmethyl)-propyl]-[3-(2,4-dimethoxy-phenyl)-2,5-dimethyl-pyrazolo[1,5-a]pyrimidin-7-yl]-amine]
CCC(Cc1nc(C)no1)Nc1cc(C)nc2c(-c3ccc(OC)cc3OC)c(C)nn12 (stereo not drawn) [Example 12-11, [3-(2,4-Dimethoxy-phenyl)-2,5-dimethyl-pyrazolo[1,5-a]pyrimidin-7-yl]-[1-(3-methyl-[1,2,4]oxadiazol-5-ylmethyl)-propyl]-amine]
CCC[C@H](Nc1cc(C)nc2c(-c3ccc(OC)cc3C)c(C)nn12)c1nc(C)no1 [Example 13-1, [3-(4-Methoxy-2-methyl-phenyl)-2,5-dimethyl-pyrazolo[1,5-a]pyrimidin-7-yl]-[(S)-1-(3-methyl-[1,2,4]oxadiazol-5-yl)-butyl]-amine]

— patent US7879862B2, “Pyrazolo[1,5-alpha]pyrimidinyl derivatives useful as corticotropin-releasing factor (CRF) receptor antagonists” (SmithKline Beecham (Cork) Limited, priority 2004, dated 2011)
